Measured values taken from US20250179073A1, “TRICYCLIC HETEROCYCLE COMPOUNDS AS IAP ANTAGONISTS” (Ascentage Pharma (Suzhou) Co., Ltd., priority 2022, published 2025).
pIC50: −log10 of the molar value.

Key:
[1] = system: EVSA-T cells; test: Cell proliferation assay (CellTiter-Glo), EVSA-T; type: cell-based; details: Homo sapiens, EVSA-T, 72 h, 72 h treatment, Celltiter-Glo luminescence
In short: (§1)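 Compounds tested over ten concentrations ([…]) for 72 h on EVSA-T cells in MEM/10% FBS and MDA-MB-231 cells in RPMI-1640/10% FBS, seeded at 10000/well. Luminescent CellTiter-Glo readout; IC50 fitted after normalisation to controls.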

[2] = system: MDA-MB-231 cells; test: Cell proliferation assay (CellTiter-Glo), MDA-MB-231; type: cell-based; details: Homo sapiens, MDA-MB-231, 72 h, 72 h treatment, Celltiter-Glo luminescence
In short: as §1

Structure (SMILES)	pIC50 [2]	pIC50 [1]
C[C@@H]1CN(CC(=O)N2CC(C)(C)c3c2cc(Cc2ccc(F)cc2)c2nn(Cc4ncccc4F)c(=O)n32)[C@@H](CN2CCOC[C@H]2C)CN1 [Compound 220, 4-(4-fluorobenzyl)-2-((3-fluoropyridin-2-yl)methyl)-8,8-di methyl-6-(2-((2R,5R)-5-methyl-2-(((R)-3-methylmorpholino)methyl)piperazin-1-yl)acetyl)-2,6,7,8-tetrahydro-1H-pyrrolo[2,3-e][1,2,4]triazolo[4,3-a]pyridin-1-one]	7.17	8.70
C[C@@H]1CN(CC(=O)N2CC(C)(C)c3c2cc(Cc2ccc(F)cc2)c2ncnn32)[C@@H](CN2Cc3cnccc3C2=O)CN1 [Compound 96, 2-(((2R,5R)-1-(2-(4-(4-fluorobenzyl)-8,8-dimethyl-7,8-dihydro-6H-pyrrolo[2,3-e][1,2,4]triazolo[1,5-a]pyridin-6-yl)-2-oxoethyl)-5-methylpiperazin-2-yl)methyl)-2,3-dihydro-1H-pyrrolo[3,4-c]pyridin-1-one]	7.28	8.30
C[C@@H]1CN(CC(=O)N2CC(C)(C)c3c2cc(Cc2ccc(F)cc2)c2ncnn32)[C@@H](CN2Cc3cc(F)ccc3C2=O)CN1 [Compound 100, 5-fluoro-2-(((2R,5R)-1-(2-(4-(4-fluorobenzyl)-8,8-dimethyl-7,8-dihydro-6H-pyrrolo[2,3-e][1,2,4]triazolo[1,5-a]pyridin-6-yl)-2-oxoethyl)-5-methylpiperazin-2-yl)methyl)isoindolin-1-one]	7.68	8.40
C[C@@H]1CN(CC(=O)N2CC(C)(C)c3c2cc(Cc2ccc(F)cc2)c2nc(CC#N)nn32)[C@@H](CN2CCOC[C@H]2C)CN1 [Compound 196, 2-(4-(4-fluorobenzyl)-8,8-dimethyl-6-(2-((2R,5R)-5-methyl-2-(((R)-3-methylmorpholino)methyl)piperazin-1-yl)acetyl)-7,8-dihydro-6H-pyrrolo[2,3-e][1,2,4]triazolo[1,5-a]pyridin-2-yl)acetonitrile]	7.37	8.40
C[C@@H]1CN(CC(=O)N2CC(C)(C)c3c2cc(Cc2ccc(F)cc2)c2ncnn32)[C@@H](CN2CC3CCC2CO3)CN1 (stereo partly drawn) [Compound 214, 2-((2R,5R)-2-((2-oxa-5-azabicyclo[2.2.2]octan-5-yl)methyl)-5-methylpiperazin-1-yl)-1-(4-(4-fluorobenzyl)-8,8-dimethyl-7,8-dihydro-6H-pyrrolo[2,3-e][1,2,4]triazolo[1,5-a]pyridin-6-yl)ethan-1-one]	7.31	8.10
C[C@@H]1CN(CC(=O)N2CC(C)(C)c3c2cc(Cc2ccc(F)cc2)c2nn(CCO)c(=O)n32)[C@@H](CN2CCOC[C@H]2C)CN1 [Compound 201, 4-(4-fluorobenzyl)-2-(2-hydroxyethyl)-8,8-dimethyl-6-(2-((2R,5R)-5-methyl-2-(((R)-3-methylmorpholino)methyl)piperazin-1-yl)acetyl)-2,6,7,8-tetrahydro-1H-pyrrolo[2,3-e][1,2,4]triazolo[4,3-a]pyridin-1-one]	7.59	7.96
C[C@@H]1CN(CC(=O)N2CC(C)(C)c3c2cc(Cc2ccc(F)cc2)c2nc(C(F)(F)F)cn32)[C@@H](CN2CCOCC23CC3)CN1 [Compound 147, 2-((2R,5R)-2-((7-oxa-4-azaspiro[2.5]octan-4-yl)methyl)-5-methylpiperazin-1-yl)-1-(4-(4-fluorobenzyl)-8,8-dimethyl-2-(trifluoromethyl)-7,8-dihydro-6H-imidazo[1,2-a]pyrrolo[2,3-e]pyridin-6-yl)ethan-1-one]	6.92	8.00
COC(=O)N(C)c1nc2c(Cc3ccc(F)cc3)cc3c(n2n1)C(C)(C)CN3C(=O)CN1C[C@@H](C)NC[C@@H]1CN1CCOC[C@H]1C [Compound 225, methyl (4-(4-fluorobenzyl)-8,8-dimethyl-6-(2-((2R,5R)-5-methyl-2-(((R)-3-methylmorpholino)methyl)piperazin-1-yl)acetyl)-7,8-dihydro-6H-pyrrolo[2,3-e][1,2,4]triazolo[1,5-a]pyridin-2-yl)(methyl)carbamate]	7.30	8.70
Cc1ncc(Cc2cc3c(n4ncnc24)C(C)(C)CN3C(=O)CN2C[C@@H](C)NC[C@@H]2CN2CCOC[C@H]2C)s1 [Compound 132, 1-(8,8-dimethyl-4-((2-methylthiazol-5-yl)methyl)-7,8-dihydro-6H-pyrrolo[2,3-e][1,2,4]triazolo[1,5-a]pyridin-6-yl)-2-((2R,5R)-5-methyl-2-(((R)-3-methylmorpholino)methyl)piperazin-1-yl)ethan-1-one]	6.66	7.25

Further lines, with some results ahead:

pIC50 [2]	Structure (SMILES)	pIC50 [1]
7.82	C[C@@H]1CN(CC(=O)N2CC(C)(C)c3c2cc(Cc2ccc(F)cc2)c2nn(CC(F)F)c(=O)n32)[C@@H](CN2CCOC[C@H]2C)CN1 [Compound 264, 2-(2,2-difluoroethyl)-4-(4-fluorobenzyl)-8,8-dimethyl-6-(2-((2R,5R)-5-methyl-2-(((R)-3-methylmorpholino)methyl)piperazin-1-yl)acetyl)-2,6,7,8-tetrahydro-1H-pyrrolo[2,3-e][1,2,4]triazolo[4,3-a]pyridin-1-one]	8.33
7.16	C[C@@H]1CN(CC(=O)N2CC(C)(C)c3c2cc(Cc2ccc(F)cc2)c2nn(Cc4ccncc4)c(=O)n32)[C@@H](CN2CCOC[C@H]2C)CN1 [Compound 254, 4-(4-fluorobenzyl)-8,8-dimethyl-6-(2-((2R,5R)-5-methyl-2-(((R)-3-methylmorpholino)methyl)piperazin-1-yl)acetyl)-2-(pyridin-4-ylmethyl)-2,6,7,8-tetrahydro-1H-pyrrolo[2,3-e][1,2,4]triazolo[4,3-a]pyridin-1-one]	8.42
7.06	C[C@@H]1CN(CC(=O)N2CC(C)(C)c3c2cc(Cc2ccc(F)cc2)c2nn(Cc4cncnc4)c(=O)n32)[C@@H](CN2CCOC[C@H]2C)CN1 [Compound 236, 4-(4-fluorobenzyl)-8,8-dimethyl-6-(2-((2R,5R)-5-methyl-2-(((R)-3-methylmorpholino)methyl)piperazin-1-yl)acetyl)-2-(pyrimidin-5-ylmethyl)-2,6,7,8-tetrahydro-1H-pyrrolo[2,3-e][1,2,4]triazolo[4,3-a]pyridin-1-one]	9.15
7.42	C[C@@H]1CN(CC(=O)N2CC(C)(C)c3c2cc(Cc2ccc(F)cc2)c2nn(-c4ncccn4)c(=O)n32)[C@@H](CN2CCOC[C@H]2C)CN1 [Compound 230, 4-(4-fluorobenzyl)-8,8-dimethyl-6-(2-((2R,5R)-5-methyl-2-(((R)-3-methylmorpholino)methyl)piperazin-1-yl)acetyl)-2-(pyrimidin-2-yl)-2,6,7,8-tetrahydro-1H-pyrrolo[2,3-e][1,2,4]triazolo[4,3-a]pyridin-1-one]	8.10
7.90	C[C@@H]1CN(CC(=O)N2CC(C)(C)c3c2cc(Cc2ccc(F)cc2)c2nn(CC4(O)CCC4)c(=O)n32)[C@@H](CN2CCOC[C@H]2C)CN1 [Compound 262, 4-(4-fluorobenzyl)-2-((1-hydroxycyclobutyl)methyl)-8,8-dimethyl-6-(2-((2R,5R)-5-methyl-2-(((R)-3-methylmorpholino)methyl)piperazin-1-yl)acetyl)-2,6,7,8-tetrahydro-1H-pyrrolo[2,3-e][1,2,4]triazolo[4,3-a]pyridin-1-one]	8.89
